Measurements from publication PMC11172478, “1,3,5-Triazine as Branching Connector for the Construction of Novel Antimicrobial Peptide Dendrimers: Synthesis and Biological Characterization” (International Journal of Molecular Sciences, 2024).
≈ marks a conversion by molar mass, not a printed value. Starred links: 1 amine or outer side, 2 acyl side, 3 side chain; linkers in the order of their positions; H or OH if unused. Positions of bridges follow the written chain, without caps; N, C: chain ends. Residues, ends and D or L forms follow the SMILES beside them. Chains are numbered I, II in the order given. X1 = O=C(c1ccc(Oc2nc(NCCN[*:2])nc(NCCN[*:3])n2)cc1)[*:1]

Key:
E. coli 7259 = assay: microbe, parasite or virus in culture; type: cell-based; details: 7259, 24 h
Protocol: (§1) E. coli ATCC 25922, P. aeruginosa ATCC 27853, S. aureus ATCC 29213, P. aeruginosa 666 SJD (ciprofloxacin-resistant), P. aeruginosa P12, P13, P15, P16 and P17 (MDR isolates) and E. coli 7987, 5545, 8248, 13974, 7259 and 208691 (MDR isolates) from our own collection were included in the present study.
(§2) The antimicrobial activity of the dendrimers was evaluated against E. coli ATCC 25922, P. aeruginosa ATCC 27853 and S. aureus ATCC 29213 strains. The MIC values were determined by the broth microdilution method. Briefly, the different strains were grown in Muller Hinton broth cation adjusted (MHBCA) medium overnight at 37 °C with shaking at 200 rpm. The bacterial cultures were then adjusted to OD625nm of 0.08–0.1, and 5 μL of each diluted suspension was added to 96-well plates previously filled with MHBCA and serially diluted peptides. Plates were incubated for 24 h at 37 °C. Finally, the MIC was determined macroscopically, based on the visual turbidity of the wells.

E. coli 5545 = assay: microbe, parasite or virus in culture; type: cell-based; details: 5545, 24 h
Protocol: as §1, §2

P. aeruginosa P13 = assay: microbe, parasite or virus in culture; type: cell-based; details: P13, 24 h
Protocol: as §1, §2

P. aeruginosa P12 = assay: microbe, parasite or virus in culture; type: cell-based; details: P12, 24 h
Protocol: as §1, §2

P. aeruginosa P17 = assay: microbe, parasite or virus in culture; type: cell-based; details: P17, 24 h
Protocol: as §1, §2

E. coli 7987 = assay: microbe, parasite or virus in culture; type: cell-based; details: 7987, 24 h
Protocol: as §1, §2

P. aeruginosa P15 = assay: microbe, parasite or virus in culture; type: cell-based; details: P15, 24 h
Protocol: as §1, §2

P. aeruginosa ATCC 27853 [1] = assay: Bacterial growth curves; type: cell-based; details: P. aeruginosa ATCC 27853, TSB, MIC, ½ MIC and ¼ MIC, 24 h, 37 °C, OD 850 nm
Protocol: (§3) The real-time effect of the peptide dendrimers was examined on the growth curves of E. coli ATCC 25922 and P. aeruginosa ATCC 27853. Volumes of 10 mL of TSB liquid cultures containing 1–5 × 10^5 CFU/mL in the logarithmic phase were adjusted in Falcon tubes. Peptide dendrimers were then added at MIC and sub-inhibitory concentrations (½ MIC and ¼ MIC). Incubation was performed in RTS-1C real-time reverse spin bioreactors RTS-1 (Biosan) for 24 h at 37 °C and 2000 rpm. Growth was measured noninvasively as optical density (OD 850 nm) every 15 min.

E. coli ATCC 25922 [2] = type: cell-based; details: for effect on growth curve (in words): E. coli ATCC 25922, TSB, MIC, ½ MIC and ¼ MIC, 37 °C, OD 850 nm
Protocol: as §3

[3] = Black lipid bilayers conductance; details: DiPhPC/PS 4:1 in n-decane, 1 M KCl, −80, −120 and −180 mV
Protocol: The basic methods have been described previously. Membranes were prepared from 1% lipid a mixture of di-phytanoyl-phosphatidylcholine/di-phytanoylphosphatidylserine (DiPhPC/PS) in a molar ratio of 4:1 in n-decane (Avanti Polar Lipids, Delfzyl, The Netherlands). Bilayers were painted over a 2 mm^2 hole in a Teflon divider separating two compartments containing 5 mL each of a bathing solution of 1MKCl. Voltages were applied across the membrane via calomel electrodes connected by a salt bridge. The resultant current was amplified 10^8-fold by a current amplifier and recorded on a Rikadenski chart recorder. A concentration of 1 μg/mL of the dendrimer was used based on the results of Wu et al..

E. coli ATCC 25922 [4] = assay: Atomic force microscopy of treated bacteria; type: cell-based; details: E. coli ATCC 25922, dendrimer at MIC, 4 h, 37 °C
Protocol: E. coli ATCC 25922 was grown at 37 °C in Mueller Hinton cation-adjusted broth to an optical density of 0.25 at 625 nm. Dendrimers were added to a starting inoculum of 10^6 CFU/mL and incubated for 4 h at 37 °C with shaking. Untreated E. coli was included as a control. Cells in 1 mL of culture were centrifuged at 5000 rpm for 5 min and washed three times with 1 mL of sterile water. The bacterial cells were then resuspended in 100 µL of sterile water and a 10 µL drop was applied to a freshly cleaved mica surface and allowed to dry for approximately 10 min at room temperature.
The disk surfaces were analyzed by atomic force microscopy using an AFM XE-70 (Park Systems, Suwon, Korea) in non-contact mode with an ACTA 10M cantilever. […] The AFM images were processed using a scanning probe image processor XEI (Park Systems), correcting the plane of the AFM image for any coupling of the lateral plane and the z-axis caused by the instrument.

[5] = test system: E. coli susceptible strains; assay: Checkerboard assay; type: cell-based
Protocol: (§4) A checkerboard assay was used to determine the fractional inhibitory concentrations (FICs) of dendrimers in combination with conventional antibiotics. Briefly, each well in a 96-well plate was inoculated with 100 µL of a bacterial inoculum of 1 × 10^6 CFU/mL, and the plates were incubated at 37 °C for 24 h. The FIC was calculated after identifying the first well in each row without growth (MIC), according to the following formula: FIC of drug A (FIC A) = (MIC of drug A in combination)/(MIC of A); FIC of drug B (FIC B) = (MIC of drug B in combination)/(MIC of B). The FIC index (FICI) values were calculated by adding the FIC of drug A to the FIC of drug B [46]. The interpretation of the (FICI) was the following: FICI ≤ 0.5, synergy; 0.5 < FICI ≤ 1, additivity; 1 < FICI ≤ 2 […].

[6] = test system: P. aeruginosa susceptible and resistant strains; assay: Checkerboard assay; type: cell-based; details: both susceptible and resistant strains
Protocol: as §4

MDR E. coli = assay: Checkerboard assay; type: cell-based; details: for interaction with ciprofloxacin: MDR E. coli; for interaction with rifampicin: strain not stated at this place, b42: results for rifampin quite similar to ciprofloxacin
Protocol: as §4

S. aureus ATCC 29213 = type: cell-based; details: ATCC 29213, 24 h
Protocol: as §2

E. coli ATCC 25922 [7] = type: cell-based; details: broth microdilution, MHBCA, 24 h, 37 °C, visual turbidity
Protocol: as §2

P. aeruginosa ATCC 27853 [8] = type: cell-based; details: broth microdilution, MHBCA, 24 h, 37 °C, visual turbidity
Protocol: as §2

SMILES | MIC (E. coli 7259) | MIC (E. coli 5545) | MIC (P. aeruginosa P13) | MIC (P. aeruginosa P12) | MIC (P. aeruginosa P17) | MIC (E. coli 7987) | MIC (P. aeruginosa P15) | effect on growth curve (in words) (P. aeruginosa ATCC 27853 [1]) | MIC value deduced from microfermentor experiments (E. coli ATCC 25922 [2]; ATCC 25922, 24 h) | effect on growth curve (in words) (E. coli ATCC 25922 [2]; 24 h) | concentration that completely inhibited detectable growth (E. coli ATCC 25922 [2]; E. coli ATCC 25922, growth curves, 24 h) | channel formation in planar lipid bilayers (conductance) [3] | bacterial surface alteration by AFM (in words) (E. coli ATCC 25922 [4]) | interaction with ciprofloxacin [5] | interaction with ciprofloxacin [6] | interaction with ciprofloxacin (MDR E. coli) | interaction with rifampicin (MDR E. coli) | MIC S. aureus ATCC 29213 (S. aureus ATCC 29213) | MIC E. coli ATCC 25922 (E. coli ATCC 25922 [7]) | MIC P. aeruginosa ATCC 27853 (P. aeruginosa ATCC 27853 [8])
CC(C)C[C@H](NC(=O)c1ccc(Oc2nc(NCCNC(=O)[C@H](CCCCN)NC(=O)[C@H](CC(C)C)NC(=O)[C@H](CCCCN)NC(=O)[C@H](CC(C)C)NC(=O)[C@H](CCCCN)NC(=O)[C@@H](N)CC(C)C)nc(NCCNC(=O)[C@H](CCCCN)NC(=O)[C@H](CC(C)C)NC(=O)[C@H](CCCCN)NC(=O)[C@H](CC(C)C)NC(=O)[C@H](CCCCN)NC(=O)[C@@H](N)CC(C)C)n2)cc1)C(=O)N[C@@H](CCCCN)C(=O)N[C@@H](CC(C)C)C(=O)N[C@@H](CCCCN)C(=O)N[C@@H](CC(C)C)C(=O)N[C@@H](CCCCN)C(N)=O [Dendrimer 1, H-[(LK)3]2-(EDA)2-TA-PHBA-(LK)3-NH2] (I: LKLKLK-NH2 / II: H-LKLKLK / III: H-LKLKLK; linker I:N-II:C-III:C via X1) | 32 µg/mL (≈ 12.8 µM) | 8 µg/mL (≈ 3.19 µM) | 64 µg/mL (≈ 25.6 µM) | >128 µg/mL | 16 µg/mL (≈ 6.39 µM) | 8 µg/mL (≈ 3.19 µM) | >128 µg/mL | noticeable growth delay | < 2 µg/mL | fully inhibited growth at the three concentrations tested | 2 µg/mL | did not induce membrane channels | significant surface damages | additive effect | additive effect | synergistic | synergic | >64 µg/mL | 8 µg/mL (≈ 3.19 µM) | 16 µg/mL (≈ 6.39 µM)
CC(C)C[C@H](NC(=O)[C@H](CCCCN)NC(=O)[C@H](CC(C)C)NC(=O)[C@H](CCCCN)NC(=O)[C@H](CC(C)C)Nc1nc(NCCNC(=O)[C@H](CCCCN)NC(=O)[C@H](CC(C)C)NC(=O)[C@H](CCCCN)NC(=O)[C@H](CC(C)C)NC(=O)[C@H](CCCCN)NC(=O)[C@@H](N)CC(C)C)nc(NCCNC(=O)[C@H](CCCCN)NC(=O)[C@H](CC(C)C)NC(=O)[C@H](CCCCN)NC(=O)[C@H](CC(C)C)NC(=O)[C@H](CCCCN)NC(=O)[C@@H](N)CC(C)C)n1)C(=O)N[C@@H](CCCCN)C(N)=O [Dendrimer 2, H-[(LK)3-EDA]2-TA-(LK)3-NH2] | 2 µg/mL (≈ 0.839 µM) | 8 µg/mL (≈ 3.36 µM) | 32 µg/mL (≈ 13.4 µM) | 32 µg/mL (≈ 13.4 µM) | 16 µg/mL (≈ 6.71 µM) | 4 µg/mL (≈ 1.68 µM) | 16 µg/mL (≈ 6.71 µM) | complete growth inhibition occurred at the MIC |  | full growth inhibition only at the MIC |  | did not induce membrane channels | significant surface damages | additive effect | additive effect | synergistic | synergic | >64 µg/mL | 2 µg/mL (≈ 0.839 µM) | 16 µg/mL (≈ 6.71 µM)
